Experiments:
Met kinase [1] = target: T1, Met kinase (Homo sapiens, UniProt P08581); assay: Met kinase inhibition, flashplate method (enzyme); type: biochemical; set-up: 6His (N); purchased Upstate 14-526; host or cells: Sf21 insect cells (S. frugiperda), baculovirus
Protocol: The test plates used are 96-well Flashplate® microtitre plates from Perkin Elmer (Cat. No SMP200). The components of the kinase reaction described below are pipetted into the assay plate. The Met kinase and the substrate poly Ala-Glu-Lys-Tyr, (pAGLT, 6:2:5:1), are incubated for 3 hrs at room temperature with radioactively labelled ^33P-ATP in the presence and absence of test substances in a total volume of […]. The reaction is terminated using 150 μl of a 60 mM EDTA solution. After incubation for a further 30 min at room temperature, the supernatants are filtered off with suction, and the wells are washed three times with 200 μl of 0.9% NaCl solution each time. The measurement of the bound radioactivity is carried out by means of a scintillation measuring instrument (Topcount NXT, Perkin-Elmer).
The full value used is the inhibitor-free kinase reaction. This should be approximately in the range 6000-9000 cpm. The pharmacological zero value used is staurosporin in a final concentration of 0.1 mM. The inhibitory values (IC50) are determined using the RS1_MTS program.
30 μl of assay buffer 10 μl of substance to be tested in assay buffer with 10% of DMSO 10 μl of ATP (final concentration 1 μM cold, 0.35 μCi of ^33P-ATP) 50 μl of Met kinase/substrate mixture in assay buffer; • (10 ng of enzyme/well, 50 ng of pAGLT/well)

Met kinase [2] = target: T1, Met kinase; assay: Met kinase inhibition (cell); type: cell-based

T1 sequence (P08581 25-1390): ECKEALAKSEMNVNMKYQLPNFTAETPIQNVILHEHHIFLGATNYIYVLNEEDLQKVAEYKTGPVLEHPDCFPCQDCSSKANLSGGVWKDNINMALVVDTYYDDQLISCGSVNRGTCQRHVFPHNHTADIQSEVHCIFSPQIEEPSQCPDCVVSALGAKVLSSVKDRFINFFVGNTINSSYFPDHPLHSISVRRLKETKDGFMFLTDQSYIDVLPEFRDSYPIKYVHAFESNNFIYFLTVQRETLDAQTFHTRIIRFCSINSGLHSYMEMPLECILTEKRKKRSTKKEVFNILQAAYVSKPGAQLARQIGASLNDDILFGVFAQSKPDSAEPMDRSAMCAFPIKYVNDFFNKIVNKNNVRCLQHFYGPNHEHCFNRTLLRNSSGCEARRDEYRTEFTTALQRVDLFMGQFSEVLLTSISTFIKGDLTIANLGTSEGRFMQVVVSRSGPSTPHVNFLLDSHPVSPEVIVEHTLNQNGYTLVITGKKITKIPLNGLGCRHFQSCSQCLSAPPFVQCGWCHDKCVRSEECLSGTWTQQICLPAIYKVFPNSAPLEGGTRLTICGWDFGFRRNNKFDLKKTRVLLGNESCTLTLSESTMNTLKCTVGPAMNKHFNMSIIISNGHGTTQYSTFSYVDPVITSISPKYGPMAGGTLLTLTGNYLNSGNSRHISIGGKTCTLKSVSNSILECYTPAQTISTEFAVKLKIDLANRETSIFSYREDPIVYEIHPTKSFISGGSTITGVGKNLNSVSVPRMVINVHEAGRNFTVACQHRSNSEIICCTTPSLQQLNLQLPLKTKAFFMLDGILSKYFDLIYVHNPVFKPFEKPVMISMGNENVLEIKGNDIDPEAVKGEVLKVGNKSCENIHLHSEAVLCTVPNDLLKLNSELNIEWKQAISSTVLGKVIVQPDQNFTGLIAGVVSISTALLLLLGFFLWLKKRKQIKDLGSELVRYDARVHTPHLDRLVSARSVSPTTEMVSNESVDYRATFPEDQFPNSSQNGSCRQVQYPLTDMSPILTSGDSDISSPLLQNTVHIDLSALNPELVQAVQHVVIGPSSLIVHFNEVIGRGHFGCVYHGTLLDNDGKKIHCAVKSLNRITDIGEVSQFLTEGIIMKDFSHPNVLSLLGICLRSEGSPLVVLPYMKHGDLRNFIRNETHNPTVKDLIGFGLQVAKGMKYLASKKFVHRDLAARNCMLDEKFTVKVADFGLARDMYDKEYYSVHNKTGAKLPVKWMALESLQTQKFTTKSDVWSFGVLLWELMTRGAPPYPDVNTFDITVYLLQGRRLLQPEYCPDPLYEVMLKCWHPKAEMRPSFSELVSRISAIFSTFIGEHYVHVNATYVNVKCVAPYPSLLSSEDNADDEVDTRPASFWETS

melting point [°C] | IC50 (Met kinase [1]) [µM] | IC50 (Met kinase [2]) [µM] | Structure (SMILES)
230 | – | – | N#Cc1ccc2[nH]c(-c3ccncc3)c(-c3ccc(F)cc3)c2n1
230 to 232 | – | – | N#Cc1ccc2[nH]c(-c3cncnc3)c(-c3ccc(F)cc3)c2n1 [Compound A14, 3-(4-fluorophenyl)-2-(pyrimidin-5-yl)-1H-pyrrolo[3,2-b]pyridine-5-carbonitrile]
– | > 10 | – | N#Cc1ccc2[nH]c(-c3ccc(F)cc3)c(-c3ccncc3)c2n1 [Compound A20]
– | 0.1 to 10 | > 10 | N#Cc1ccc2[nH]c(-c3ccncc3)c(-c3cccc(F)c3)c2n1 [Compound A58]
– | 0.1 to 10 | > 10 | O=C(O)c1ccc2[nH]c(-c3ccncc3)c(-c3cccc(Cl)c3)c2n1 [Compound A59]
– | 0.1 to 10 | > 10 | NC(=O)c1ccc2[nH]c(-c3ccncc3)c(-c3cccc(Cl)c3)c2n1 [Compound A60]
– | > 10 | > 10 | O=C(NCCN1CCOCC1)c1ccc2[nH]c(-c3ccncc3)c(-c3cccc(Cl)c3)c2n1 [Compound A61]
– | > 10 | – | N#Cc1ccc2[nH]c(-c3cncnc3)c(-c3cccc(Cl)c3)c2n1 [Compound A62, 3-(3-Chlorophenyl)-2-pyrimidin-5-yl-1H-pyrrolo[3,2-b]pyridine-5-carbonitrile]
